Patent US7973056B2, “Triazole derivative or salt thereof” (Fujifilm Finechemicals Co., Ltd, priority 2008, dated 2011)
Values after ≈ are worked out from the molar mass of the structure shown.

Assays:
Experiment in all cases: Antifungal activity test (in vitro), MIC
Assay type in all cases: cell-based
[1] = test system: Cryptococcus neoformans ATCC 24067; details: ATCC24067
Protocol: (§1) Minimum inhibitory concentration (MIC) of each of the compounds obtained in Examples 1 to 12 was measured for respective fungi at MOS Pharm Service, by the methods described in Antimicrobial Agents and Chemotherapy, vol. 3, pp. 40-48 (1973), Antimicrobial Agents and Chemotherapy, vol. 33, pp. 215-222 (1989) and Antimicrobial Agents and Chemotherapy, vol. 38, pp. 2362-2368 (1994). The measuring conditions are shown in the following. In this case, Voriconazol was used as a comparative compound. Cryptococcus neoformans ATCC 24067, Pityrosporum ovale ATCC 38593; Cultured at 37° C. for 2 day using fluid Sabouraud medium, and this was used as a cell suspension. Each of the compounds of the invention was adjusted to a concentration of 1% by weight using dimethyl sulfoxide (DMSO) and a medium similar to the respective medium used in the above-mentioned fungal culture, having a final concentration of from 0.001 to 100 μg/ml, was prepared. Each of the inoculation cell suspensions prepared by the above-mentioned methods was inoculated onto this agar plate. […] In this connection, Voriconazol was used as the comparative compound C-1.

[2] = test system: Pityrosporum ovale ATCC 38593; details: Malassezia furfur, ATCC38593
Protocol: as §1

[3] = test system: Trichophyton mentagrophytes ATCC 9533; details: ATCC9533
Protocol: as §1, with “Trichophyton mentagrophytes” for “Cryptococcus neoformans”, “9533;” for “24067, Pityrosporum ovale ATCC 38593;”, “28°” for “37°”, “3 days” for “2 day”

[4] = test system: Candida albicans ATCC 10231; details: ATCC10231
Protocol: as §1, with “Candida albicans” for “Cryptococcus neoformans”, “10231 and” for “24067, Pityrosporum ovale”, “44858;” for “38593;”, “20 hours” for “2 day”

[5] = test system: Candida albicans ATCC 44858; details: ATCC44858
Protocol: as §1, with “Candida albicans” for “Cryptococcus neoformans”, “10231 and” for “24067, Pityrosporum ovale”, “44858;” for “38593;”, “20 hours” for “2 day”

[6] = test system: Trichophyton rubrum ATCC 10218; details: ATCC10218
Protocol: as §1, with “Trichophyton rubrum” for “Cryptococcus neoformans”, “10218;” for “24067, Pityrosporum ovale ATCC 38593;”, “28°” for “37°”, “3 days” for “2 day”

[7] = test system: Aspergillus niger ATCC 8740; details: ATCC8740
Protocol: as §1, with “Aspergillus niger” for “Cryptococcus neoformans”, “8740;” for “24067, Pityrosporum ovale ATCC 38593;”, “28°” for “37°”, “days” for “day”, “potato dextrose broth,” for “fluid Sabouraud medium,”

Structure (SMILES)	MIC [1] [µg/mL]	MIC [2] [µg/mL]	MIC [3] [µg/mL]	MIC [4] [µg/mL]	MIC [5] [µg/mL]	MIC [6] [µg/mL]	MIC [7] [µg/mL]
C[C@@H](N1CC=C(c2ccccn2)CC1)[C@](O)(Cn1cncn1)c1ccc(F)cc1F [I-3, (2R,3R)-2-(2,4-difluorophenyl)-3-(3′,6′-dihydro-2,4′-bipyridin-1′(2′H)-yl)-1-(1,2,4-triazol-1-yl)butan-2-ol]	0.3 (≈ 0.729 µM)	0.003 (≈ 0.00729 µM)	0.1 (≈ 0.243 µM)	0.3 (≈ 0.729 µM)	1 (≈ 2.43 µM)	0.3 (≈ 0.729 µM)	1 (≈ 2.43 µM)
C[C@@H](N1CC=C(c2ccc(Cl)cn2)CC1)[C@](O)(Cn1cncn1)c1ccc(F)cc1F [I-6, (2R,3R)-3-(5-chloro-3′,6′-dihydro-2,4′-bipyridin-1′(2′H)-yl)-2-(2,4-difluorophenyl)-1-(1,2,4-triazol-1-yl)butan-2-ol]	0.03 (≈ 0.0673 µM)	0.003 (≈ 0.00673 µM)	0.1 (≈ 0.224 µM)	0.01 (≈ 0.0224 µM)	–	–	–
C[C@@H](N1CCC(c2ccccn2)CC1)[C@](O)(Cn1cncn1)c1ccc(F)cc1F [I-1, (2R,3R)-2-(2,4-difluorophenyl)-3-(4-pyridin-2-ylpiperidin-1-yl)-1-(1,2,4-triazol-1-yl)butan-2-ol]	0.1 (≈ 0.242 µM)	0.3 (≈ 0.726 µM)	0.3 (≈ 0.726 µM)	0.3 (≈ 0.726 µM)	–	–	–
